Measurements published in patent publication US8906967B2 (priority 2007, dated 2014).
Where two headings read alike, the source gives them in different places.

Tested on: Clostridium perfringens ATCC 13124
Type: cell-based
Conditions: 37° C., culture broth

Row | Compound | growth of Clostridium perfringens (1.2 ppm sesquiterpene) | growth of Clostridium perfringens (2 ppm sesquiterpene) | growth of Clostridium perfringens (100 ppm sesquiterpene) | growth of Clostridium perfringens (10 ppm sesquiterpene) | also measured
1 | CC1=C2CC[C@@H](C)[C@H]2[C@H]2[C@@H](CC1)C2(C)C [(+) ledene] | − | − | − |  | 
2 | C=C1CC/C=C(\C)CC[C@@H]2[C@@H]1CC2(C)C [β-caryophyllene] |  | − | − |  | growth of Clostridium perfringens (0.2 ppm sesquiterpene): +; growth of Clostridium perfringens (1 ppm sesquiterpene): −
3 | C=C1[C@H]2CC[C@@H]3[C@H]2C(C)(C)CCC[C@]13C [Longifolene] | − | − |  | − | growth of Clostridium perfringens (0.3 ppm sesquiterpene): +
4 | CC1=CC[C@@]23[C@@H]([C@@H]12)[C@H](C(C)C)CC[C@H]3C [α-cubebene] | − |  | − |  | 
5 | C[C@@H]1CC[C@@H]2[C@H](C3=C1CC[C@H]3C)C2(C)C [(−) iso-ledene] |  |  | − |  | growth of Clostridium perfringens (0.5 ppm sesquiterpene): +
6 | C[C@@H]1CC[C@H]2C(C)(C)[C@H]3C[C@@]12CC[C@@]3(C)O [Cedrol] |  | + |  | − | 
7 | C=C1C=CC(C)(C)CCCC(C)=CCC1 [γ-humulene] |  |  |  |  | growth of Clostridium perfringens (0.4 ppm sesquiterpene): +
8 | CC1=CC[C@H]2[C@H]3[C@@H]1[C@]2(C)CC[C@H]3C(C)C [α-copaene] | − |  | − |  | growth of Clostridium perfringens (0.5 ppm sesquiterpene): +
9 | C/C1=C\CC/C(C)=C/CC(C)(C)/C=C/C1 [α-humulene (α-caryophyllene)] | − | − |  | − | growth of Clostridium perfringens (0.3 ppm sesquiterpene): +; growth of Clostridium perfringens (0.4 ppm sesquiterpene): +
10 | CC(=O)CCC=C(C)CCC=C(C)CCC=C(C)C [farnesyl acetone] |  | − |  | − | 
11 | C[C@@H]1CC[C@@H]2[C@@H]1[C@H]1[C@@H](CC[C@]2(C)O)C1(C)C [(−) epiglobulol] |  | + | − | − | growth of Clostridium perfringens (0.5 ppm sesquiterpene): +
12 | C=C1CC[C@@]23C[C@@H]1C(C)(C)[C@@H]2CC[C@H]3C [β-cedrene] | − | − |  | − | 
13 | CC(C)=CCC/C(C)=C/CC/C(C)=C/CO [trans-trans farnesol] |  | + |  | − | 
14 | C=C1CC[C@@H]2[C@H]([C@@H]3[C@H](C)CC[C@@H]13)C2(C)C [Aromadendrene] |  |  | − |  | growth of Clostridium perfringens (0.5 ppm sesquiterpene): +
15 | α-bisabolol |  | + |  |  | 
16 | bisabolene/farnesene | − | − |  | − | growth of Clostridium perfringens (0.3 ppm sesquiterpene): +
17 | CC(C)=C1C/C=C(\C)CC/C=C(\C)CC1=O [Germacrone] |  |  | − |  | growth of Clostridium perfringens (0.5 ppm sesquiterpene): +; growth of Clostridium perfringens (6 ppm sesquiterpene): +; growth of Clostridium perfringens (30 ppm sesquiterpene): −
18 | C=C1C/C=C/C(C)(C)C/C=C(\C)CCC1 [β-humulene] | − |  |  |  | growth of Clostridium perfringens (0.4 ppm sesquiterpene): +
19 | C=C1CC[C@@H]2[C@H]([C@@H]3[C@H](C)CC[C@H]13)C2(C)C [allo-aromadendrene] |  | − | − |  | 
20 | (−) globulol |  | + | − | − | growth of Clostridium perfringens (0.5 ppm sesquiterpene): +
21 | CC1=CC[C@@]23C[C@@H]1C(C)(C)[C@@H]2CC[C@H]3C [α-cedrene] | − | − |  | − | 
22 | cedrene-9-ol |  | + |  | + | 
23 | C=CC(C)(O)CCC=C(C)CCC=C(C)C (centres unmarked) [Nerolidol] |  | + |  | − | 
24 | CC(C)=CCCC(C)=CCCC(C)=CC=O [Farnesal] |  | + |  |  | 
25 | CC(=O)OCC=C(C)CCC=C(C)CCC=C(C)C [farnesyl acetate] |  | − |  | − | 
26 | CC(=O)O[C@]1(C)CC[C@@]23C[C@@H]1C(C)(C)[C@@H]2CC[C@H]3C [cedryl acetate] |  | − |  | − | 
